Measurements published in the supplement of paper PMC11451515.

Test system: P12-Ichikawa
Assay: cell viability relative to DMSO control; higher = less cytotoxic
Details: 48 h
Summary of the method: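 Viability is expressed as a percentage of DMSO wells within each plate, and cell-free wells serve as background. Seeding densities in the 1536-well plates (5 μl) were 500 cells/well for NOMO1 or SEM leukemia cells and 1000 cells/well for P12-Ichikawa. Each line was adapted for at least four passages in each medium. Library compounds in DMSO were pin-dosed at 47 μM to 0.79 nM (11 points, threefold), and CellTiter-Glo One luminescence was read after 48 h at 37°C.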

[1] = HPLM + 10% dialyzed FBS, 0.000781 µM
[2] = HPLM + 10% dialyzed FBS, 0.00234 µM
[3] = HPLM + 10% dialyzed FBS, 0.00702 µM
[4] = HPLM + 10% dialyzed FBS, 0.0211 µM
[5] = HPLM + 10% dialyzed FBS, 0.0632 µM
[6] = HPLM + 10% dialyzed FBS, 0.19 µM
[7] = HPLM + 10% dialyzed FBS, 0.569 µM
[8] = HPLM + 10% dialyzed FBS, 1.71 µM
[9] = HPLM + 10% dialyzed FBS, 5.12 µM
[10] = HPLM + 10% dialyzed FBS, 15.4 µM
[11] = HPLM + 10% dialyzed FBS, 46.1 µM
[12] = RPMI 5 mM glucose + 10% FBS, 0.000781 µM
[13] = RPMI 5 mM glucose + 10% FBS, 0.00234 µM
[14] = RPMI 5 mM glucose + 10% FBS, 0.00702 µM
[15] = RPMI 5 mM glucose + 10% FBS, 0.0211 µM
[16] = RPMI 5 mM glucose + 10% FBS, 0.0632 µM
[17] = RPMI 5 mM glucose + 10% FBS, 0.19 µM
[18] = RPMI 5 mM glucose + 10% FBS, 0.569 µM
[19] = RPMI 5 mM glucose + 10% FBS, 1.71 µM
[20] = RPMI 5 mM glucose + 10% FBS, 5.12 µM
[21] = RPMI 5 mM glucose + 10% FBS, 15.4 µM
[22] = RPMI 5 mM glucose + 10% FBS, 46.1 µM
[23] = RPMI 5 mM glucose + 10% dialyzed FBS, 0.000781 µM
[24] = RPMI 5 mM glucose + 10% dialyzed FBS, 0.00234 µM
[25] = RPMI 5 mM glucose + 10% dialyzed FBS, 0.00702 µM
[26] = RPMI 5 mM glucose + 10% dialyzed FBS, 0.0211 µM
[27] = RPMI 5 mM glucose + 10% dialyzed FBS, 0.0632 µM
[28] = RPMI 5 mM glucose + 10% dialyzed FBS, 0.19 µM
[29] = RPMI 5 mM glucose + 10% dialyzed FBS, 0.569 µM
[30] = RPMI 5 mM glucose + 10% dialyzed FBS, 1.71 µM
[31] = RPMI 5 mM glucose + 10% dialyzed FBS, 5.12 µM
[32] = RPMI 5 mM glucose + 10% dialyzed FBS, 15.4 µM
[33] = RPMI 5 mM glucose + 10% dialyzed FBS, 46.1 µM

With `CC(C)OC(=O)OCOP(=O)(CO[C@H](C)Cn1cnc2c(N)ncnc21)OCOC(=O)OC(C)C.O=C(O)C=CC(=O)O` the cell viability [1] was 110%, the cell viability [2] was 120% and the cell viability [3] was 73.1%. It also gave a cell viability [4] of 125%, a cell viability [5] of 127% and a cell viability [6] of 125%. The cell viability [7] was 125%, the cell viability [8] was 128% and the cell viability [9] was 129%. For the same molecule, the cell viability [10] was 126%, the cell viability [11] was 106% and the cell viability [12] was 105%. For the same molecule, the cell viability [13] was 132%, the cell viability [14] was 70.9% and the cell viability [15] was 122%. It also gave a cell viability [16] of 124%, a cell viability [17] of 122% and a cell viability [18] of 135%. It also gave a cell viability [19] of 129%, a cell viability [20] of 129% and a cell viability [21] of 115%. It also gave a cell viability [22] of 4.8%, a cell viability [23] of 97.6% and a cell viability [24] of 109%. For the same molecule, the cell viability [25] was 85.9%, the cell viability [26] was 115% and the cell viability [27] was 122%. It also gave a cell viability [28] of 124%, a cell viability [29] of 124% and a cell viability [30] of 124%. The cell viability [31] was 128%, the cell viability [32] was 121% and the cell viability [33] was 95.2%.
For `COc1cc2nc(N(C)CCCNC(=O)C3CCCO3)nc(N)c2cc1OC` (stereo not drawn), the cell viability [1] was 78.4%, the cell viability [2] was 88.7% and the cell viability [3] was 80.9%. The cell viability [4] was 92.3%, the cell viability [5] was 88.8% and the cell viability [6] was 87.6%. It also gave a cell viability [7] of 86.2%, a cell viability [8] of 82.3% and a cell viability [9] of 88.3%. The cell viability [10] was 92.6%, the cell viability [11] was 94.1% and the cell viability [12] was 82.3%. The cell viability [13] was 87.4%, the cell viability [14] was 89.9% and the cell viability [15] was 91%. The cell viability [16] was 92.6%, the cell viability [17] was 91.3% and the cell viability [18] was 84.6%. For the same molecule, the cell viability [19] was 87.8%, the cell viability [20] was 91.6% and the cell viability [21] was 93.9%. The cell viability [22] was 101%, the cell viability [23] was 70.4% and the cell viability [24] was 81.7%. The cell viability [25] was 76.8%, the cell viability [26] was 78.9% and the cell viability [27] was 82.9%. The cell viability [28] was 83.4%, the cell viability [29] was 79.5% and the cell viability [30] was 82.7%. It also gave a cell viability [31] of 76.6%, a cell viability [32] of 87.8% and a cell viability [33] of 80.7%.
Molecule `CNC1CCC(N(Cc2cccc(-c3ccncc3)c2)C(=O)c2sc3ccccc3c2Cl)CC1` (stereo not drawn) has a cell viability [1] of 96.9%, a cell viability [2] of 102% and a cell viability [3] of 107%. It also gave a cell viability [4] of 99.9%, a cell viability [5] of 97.3% and a cell viability [6] of 99.7%. For the same molecule, the cell viability [7] was 107%, the cell viability [8] was 13.8% and the cell viability [9] was 4.58%. The cell viability [10] was 1.97%, the cell viability [11] was 0.291% and the cell viability [12] was 89.2%. The cell viability [13] was 92.9%, the cell viability [14] was 91.4% and the cell viability [15] was 96.6%. It also gave a cell viability [16] of 94.5%, a cell viability [17] of 94.8% and a cell viability [18] of 102%. The cell viability [19] was 61.3%, the cell viability [20] was 4.21% and the cell viability [21] was 3.93%. The cell viability [22] was 1.13%, the cell viability [23] was 79.1% and the cell viability [24] was 86.1%. It also gave a cell viability [25] of 86.9%, a cell viability [26] of 95.8% and a cell viability [27] of 86.2%. It also gave a cell viability [28] of 94.4%, a cell viability [29] of 97.1% and a cell viability [30] of 44.7%. The cell viability [31] was 4.4%, the cell viability [32] was 3.5% and the cell viability [33] was 0.803%.
Molecule `OC[C@H]1O[C@@H](O[C@@H]2[C@@H](CO)O[C@](O)(CO)[C@H]2O)[C@H](O)[C@@H](O)[C@H]1O` has a cell viability [1] of 98.3%, a cell viability [2] of 104% and a cell viability [3] of 95.2%. The cell viability [4] was 105%, the cell viability [5] was 110% and the cell viability [6] was 97%. For the same molecule, the cell viability [7] was 101%, the cell viability [8] was 97.8% and the cell viability [9] was 88.8%. It also gave a cell viability [10] of 71.1%, a cell viability [11] of 93.4% and a cell viability [12] of 93.4%. For the same molecule, the cell viability [13] was 97.2%, the cell viability [14] was 97% and the cell viability [15] was 98.2%. It also gave a cell viability [16] of 100%, a cell viability [17] of 96.4% and a cell viability [18] of 99%. For the same molecule, the cell viability [19] was 89.8%, the cell viability [20] was 94.5% and the cell viability [21] was 65.2%. The cell viability [22] was 93.6%, the cell viability [23] was 90.9% and the cell viability [24] was 93%. It also gave a cell viability [25] of 92.8%, a cell viability [26] of 99.5% and a cell viability [27] of 100%. For the same molecule, the cell viability [28] was 98.5%, the cell viability [29] was 105% and the cell viability [30] was 91.5%. The cell viability [31] was 86%, the cell viability [32] was 62.2% and the cell viability [33] was 77.9%.
`NC1(Cc2ccc(Cl)cc2)CCN(c2ncnc3[nH]ccc23)CC1` showed a cell viability [1] of 105%, a cell viability [2] of 109% and a cell viability [3] of 105%. For the same molecule, the cell viability [4] was 108%, the cell viability [5] was 106% and the cell viability [6] was 103%. It also gave a cell viability [7] of 102%, a cell viability [8] of 94.7% and a cell viability [9] of 82.3%. For the same molecule, the cell viability [10] was 65.8%, the cell viability [11] was 48.3% and the cell viability [12] was 101%. For the same molecule, the cell viability [13] was 99.4%, the cell viability [14] was 101% and the cell viability [15] was 99.7%. For the same molecule, the cell viability [16] was 91.9%, the cell viability [17] was 97.8% and the cell viability [18] was 84.7%. For the same molecule, the cell viability [19] was 73.1%, the cell viability [20] was 53.7% and the cell viability [21] was 40.7%. For the same molecule, the cell viability [22] was 28.5%, the cell viability [23] was 103% and the cell viability [24] was 103%. For the same molecule, the cell viability [25] was 104%, the cell viability [26] was 102% and the cell viability [27] was 102%. The cell viability [28] was 91.1%, the cell viability [29] was 91% and the cell viability [30] was 79.6%. For the same molecule, the cell viability [31] was 66.9%, the cell viability [32] was 47% and the cell viability [33] was 34.5%.
In the case of `COC1CCC(CC1)N(C(=O)C2CCC(C)CC2)C3=C(SC(=C3)\C4=C\CCCC4)C(O)=O` (stereo not drawn), the cell viability [1] is reported as 118%, the cell viability [2] is reported as 118% and the cell viability [3] is reported as 116%. It also gave a cell viability [4] of 111%, a cell viability [5] of 108% and a cell viability [6] of 113%. The cell viability [7] was 111%, the cell viability [8] was 104% and the cell viability [9] was 95.3%. For the same molecule, the cell viability [10] was 83.5%, the cell viability [11] was 60% and the cell viability [12] was 109%. The cell viability [13] was 112%, the cell viability [14] was 109% and the cell viability [15] was 108%. For the same molecule, the cell viability [16] was 92.8%, the cell viability [17] was 106% and the cell viability [18] was 105%. For the same molecule, the cell viability [19] was 98.2%, the cell viability [20] was 94.9% and the cell viability [21] was 88.7%. The cell viability [22] was 65.6%, the cell viability [23] was 103% and the cell viability [24] was 105%. It also gave a cell viability [25] of 111%, a cell viability [26] of 110% and a cell viability [27] of 101%. It also gave a cell viability [28] of 102%, a cell viability [29] of 105% and a cell viability [30] of 97.6%. It also gave a cell viability [31] of 98.9%, a cell viability [32] of 77.8% and a cell viability [33] of 63.9%.
